Converted amounts (≈) assume the structure as drawn.
Key:
[1] = system: M. tuberculosis strain SPAM13C (LepB-UE); test: microbe, parasite or virus in culture; format: cell-based, Mycobacterium tuberculosis; conditions: for LepB-UE MIC / MIC: M. tuberculosis strain SPAM13C, OD590 after 5 days at 37 °C, average ± SD of at least two experiments, b = single value; for MIC: Mycobacterium tuberculosis, 120 h, read-out: LepB-UE MIC; for Change in potency against LepB-UE compared to compound 1: decrease in potency relative to compound 1
[2] = system: wild-type (wt) M. tuberculosis strain; test: microbe, parasite or virus in culture; format: cell-based, Mycobacterium tuberculosis; conditions: for MIC: Mycobacterium tuberculosis, 120 h, read-out: WT MIC; for MIC / WT MIC: OD590 after 5 days at 37 °C, average ± SD of at least two experiments, b = single value
in vitro = format: cell-based, African green monkey; conditions: African green monkey
Procedure: Cytotoxicity against African green monkey adult kidney cell (Vero cells) was determined as previously described using CellTiter-Glo reagent.[44] The concentration causing 50% growth inhibition (IC50) was calculated by fitting the inhibition curves using the Levenberg–Marquardt algorithm.

LepB = molecular target: T1, LepB (Mycobacterium tuberculosis, UniProt P9WKA1); test: LepB membrane assay (fluorogenic signal peptide cleavage by cell membrane fraction); format: biochemical; conditions: M. tuberculosis H37Rv cell membrane fraction, 2 μM peptide substrate, 4 h at 37 °C
T1 construct: we used purified membrane fractions to develop an in vitro assay for signal peptide cleavage; host or cells: γ-irradiated whole M. tuberculosis H37Rv; Triton X-114 membrane fraction
T1 sequence (P9WKA1 1-294): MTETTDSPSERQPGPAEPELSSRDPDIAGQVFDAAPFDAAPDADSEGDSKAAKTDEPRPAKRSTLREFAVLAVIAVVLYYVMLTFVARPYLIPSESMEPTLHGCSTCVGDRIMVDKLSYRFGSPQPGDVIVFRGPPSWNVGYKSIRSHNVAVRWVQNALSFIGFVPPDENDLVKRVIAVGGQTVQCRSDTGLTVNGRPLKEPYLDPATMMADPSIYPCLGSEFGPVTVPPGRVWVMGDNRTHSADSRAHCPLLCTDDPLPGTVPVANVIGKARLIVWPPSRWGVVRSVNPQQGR

Cc1cc(C)nc(NNC(=O)c2ccccn2)n1 [Compound 57]
LepB-UE MIC [1]: 3.9 ± 1.3 µM | MIC [1]: 3.5 to 15 µM (≈ 0.851 to 3.65 µg/mL) | Change in potency against LepB-UE compared to compound 1 [1]: activity similar to that of 1 | MIC [2]: 25 µM (≈ 6.08 µg/mL) | WT MIC [2]: 25 ± 4 µM | CC50 (in vitro): 32 µM | IC50 (LepB): 64 µM

C/C(=N\Nc1nc(C)cc(C)n1)c1cccs1 [Compound 21]
Change in potency against LepB-UE compared to compound 1 [1]: at least 10 fold | MIC [2]: > 200 µM | CC50 (in vitro): > 100 µM | IC50 (LepB): 120 µM

Cc1cc(C)nc(-n2nc(C)c3c2NC(=O)CC3c2ccccc2)n1 (stereo not shown) [Compound 50]
MIC [1]: > 200 µM | MIC [2]: > 200 µM | CC50 (in vitro): 66 µM

C/C(=N\Nc1nc(C)cc(C)n1)c1ccco1 [Compound 20]
Change in potency against LepB-UE compared to compound 1 [1]: at least 10 fold | MIC [2]: > 200 µM | CC50 (in vitro): > 100 µM | IC50 (LepB): 74 µM

N=C(N/N=C/c1cc([N+](=O)[O-])ccc1O)c1ccccn1 [Compound 16]
MIC [1]: 10 ± 3.4 µM (≈ 2.85 µg/mL) | MIC [2]: > 200 µM | CC50 (in vitro): > 100 µM | IC50 (LepB): 119 µM

N=C(N/N=C/c1ccccc1O)c1ccccn1 [Compound 17]
MIC [1]: 6.7 ± 1.6 µM (≈ 1.61 µg/mL) | Increase in potency against wt compared to 16 ([2]; relative to compound 16): ~4 fold | CC50 (in vitro): > 100 µM

CC(O)c1nc2cc(-n3ccc(-c4cnccn4)n3)ccc2[nH]1 (stereo not shown) [Compound 54]
MIC [1]: > 200 µM | MIC [2]: > 200 µM | CC50 (in vitro): > 100 µM

O=C(N/N=C/c1cccc2cccnc12)c1ccn(Cc2ccc(Cl)cc2)n1 [Compound 12]
LepB-UE MIC [1]: 6.3 ± 3.5 µM | MIC [1]: 3.5 to 15 µM (≈ 1.36 to 5.85 µg/mL) | MIC [2]: 22 ± 2 µM (≈ 8.58 µg/mL) | CC50 (in vitro): 34 µM | IC50 (LepB): > 200 µM

C/C(=N\NC(=O)c1ccc(N2CCCC2=O)cc1)c1ccccn1 [Compound 11]
LepB-UE MIC [1]: 3.5 ± 1.8 µM | MIC [1]: 3.5 to 15 µM (≈ 1.13 to 4.84 µg/mL) | MIC [2]: < 10 µM | WT MIC [2]: 14 ± 7 µM | CC50 (in vitro): 6.1 µM | IC50 (LepB): 26 µM

C/C(=N\Nc1nc(C)cc(C)n1)c1cccc(O)c1 [Compound 23]
LepB-UE MIC [1]: 54 ± 2 µM | MIC [1]: 30 to 90 µM (≈ 7.69 to 23.1 µg/mL) | Change in potency against LepB-UE compared to compound 1 [1]: at least 10 fold | MIC [2]: 115 µM (≈ 29.5 µg/mL) | CC50 (in vitro): > 100 µM | IC50 (LepB): 140 µM

C/C(=N\NS(=O)(=O)c1ccccc1)c1ccccn1 [Compound 42]
MIC [1]: 48 µM (≈ 13.2 µg/mL) | Change in potency against LepB-UE compared to compound 1 [1]: 16 fold | MIC [2]: 94 µM (≈ 25.9 µg/mL) | CC50 (in vitro): > 100 µM | IC50 (LepB): 34 µM

O=C(N/N=C/c1cccc2cccnc12)c1ccn(Cc2ccc(Cl)cc2Cl)n1 [Compound 13]
LepB-UE MIC [1]: 4.7 ± 0.6 µM | MIC [1]: 3.5 to 15 µM (≈ 1.49 to 6.36 µg/mL) | MIC [2]: 18 ± 5 µM (≈ 7.64 µg/mL) | CC50 (in vitro): 21 µM | IC50 (LepB): > 200 µM

Cc1ccc2cc(C)c(N/N=C/c3cc(Br)ccc3O)nc2c1 [Compound 5]
MIC [1]: 7.4 ± 3.4 µM (≈ 2.74 µg/mL) | MIC [2]: > 200 µM | CC50 (in vitro): 5 µM | IC50 (LepB): > 200 µM

C/C(=N\NC(N)=S)c1ccccn1 [Compound 41]
Differential activity (difference in MIC, wt versus LepB-UE) [1]: equally potent toward both wt and LepB-UE | MIC [1]: 3.6 µM (≈ 0.699 µg/mL) | Change in potency against LepB-UE compared to compound 1 [1]: comparable to that of 1 | MIC [2]: 4 µM (≈ 0.777 µg/mL) | CC50 (in vitro): 22 µM

Cc1ccc(-c2cc(C(=O)N/N=C/c3ccccn3)[nH]n2)cc1 [Compound 15]
LepB-UE MIC [1]: 15 ± 2.5 µM | MIC [2]: > 200 µM | CC50 (in vitro): 63 µM | IC50 (LepB): > 200 µM

Oc1ccc(/C=N/Nc2ccc3ccccc3n2)c(O)c1 [Compound 8]
MIC [1]: 3.6 ± 1.1 µM (≈ 1.01 µg/mL) | MIC [2]: > 200 µM | CC50 (in vitro): 6.7 µM | IC50 (LepB): > 200 µM

C/C(=N\NC(=O)c1cc(Br)ccc1O)c1ccccn1 [Compound 37]
LepB-UE MIC [1]: 2.0 ± 0.5 µM | MIC [1]: 2 to 2.5 µM (≈ 0.668 to 0.835 µg/mL) | MIC [2]: 4.2 ± 2.6 µM (≈ 1.4 µg/mL) | CC50 (in vitro): 5.4 µM

C/C(=N\NC(=O)C1CC1)c1ccccn1 [Compound 40]
LepB-UE MIC [1]: 15 ± 1 µM | MIC [2]: 42 ± 15 µM (≈ 8.54 µg/mL) | CC50 (in vitro): 75 µM | IC50 (LepB): > 200 µM

C/C(=N\Nc1ccccn1)c1ccccn1 [Compound 29]
MIC [1]: 130 µM (≈ 27.6 µg/mL) | Change in potency against LepB-UE compared to compound 1 [1]: 42 fold | MIC [2]: > 200 µM | CC50 (in vitro): > 100 µM

C/C(=N\Nc1nc(C)cc(C)n1)c1ccccc1O [Compound 24]
LepB-UE MIC [1]: 30 ± 3 µM | MIC [1]: 30 to 90 µM (≈ 7.69 to 23.1 µg/mL) | Change in potency against LepB-UE compared to compound 1 [1]: at least 10 fold | MIC [2]: 40 ± 8 µM (≈ 10.3 µg/mL) | CC50 (in vitro): 67 µM

CC(C)=NNc1nc(C)cc(C)n1 [Compound 25]
MIC [1]: > 200 µM | MIC [2]: > 200 µM | CC50 (in vitro): > 100 µM

C/C(=N\NC(=O)C1CCCN(S(=O)(=O)c2ccccc2)C1)c1ccccn1 (stereo not shown) [Compound 38]
LepB-UE MIC [1]: 4.9 ± 0.2 µM | MIC [1]: 3.5 to 15 µM (≈ 1.35 to 5.8 µg/mL) | MIC [2]: 17 ± 5 µM (≈ 6.57 µg/mL) | CC50 (in vitro): 9.5 µM | IC50 (LepB): 180 µM

C/C(=N\NC(=O)c1ccoc1C)c1ccccn1 [Compound 39]
LepB-UE MIC [1]: 2.5 ± 0.2 µM | MIC [1]: 2 to 2.5 µM (≈ 0.487 to 0.608 µg/mL) | MIC [2]: < 10 µM | WT MIC [2]: 5.5 ± 1.4 µM | CC50 (in vitro): 3.3 µM | IC50 (LepB): > 200 µM
